According to patent US20260116867A1, “PROTEOLYSIS TARGETING CHIMERAS FOR HUMAN PREGNANE X RECEPTOR AND FOR DEGRADATION OF GSPT1” (ST. JUDE CHILDREN'S RESEARCH HOSPITAL, priority 2022, published 2026):
Entries after “also recorded” stand apart in the source; their conditions may differ.

How the values were obtained:
GSPT1 = molecular target: T1, GSPT1 (Homo sapiens, UniProt P15170+Q96SW2); assay: Western blot of GSPT1 protein in SNU—C4 3xFLAG-PXR KI cells; type: cell-based; settings: for GSPT1 Loss at 10 μM (% ± SD): 10 μM compound, calculated from western blots FIG. 9A; for GSPT1 degradation (in words): western blot, SNU—C4 3xFLAG-PXR KI cells
T1 construct: endogenous in cells
Protocol: (§1) The following day, DMSO or compounds were added to result in 0.5% DMSO and the indicated compound concentrations, and cells were incubated for the indicated time points. Cells were lysed and subjected to western blotting as above using antibodies against FLAG (Sigma-Aldrich, cat. #F3165, 1:2,000 dilution), GSPT1 (Abcam, cat. #ab126090, 1:4,000 dilution), and R-Actin (Cell Signaling Technology, cat. #4967, 1:2,000 dilution).

PXR [1] = molecular target: T2, PXR (Homo sapiens, UniProt O75469); assay: Western blot of endogenous 3xFLAG-PXR protein in SNU—C4 3xFLAG-PXR KI cells; type: cell-based; design: To assess SJPYT-195 activity against endogenous PXR, CRISPR-Cas9 was used; endogenous in cells; settings: western blot, SNU—C4 3xFLAG-PXR KI cells
T2 sequence (O75469 1-434): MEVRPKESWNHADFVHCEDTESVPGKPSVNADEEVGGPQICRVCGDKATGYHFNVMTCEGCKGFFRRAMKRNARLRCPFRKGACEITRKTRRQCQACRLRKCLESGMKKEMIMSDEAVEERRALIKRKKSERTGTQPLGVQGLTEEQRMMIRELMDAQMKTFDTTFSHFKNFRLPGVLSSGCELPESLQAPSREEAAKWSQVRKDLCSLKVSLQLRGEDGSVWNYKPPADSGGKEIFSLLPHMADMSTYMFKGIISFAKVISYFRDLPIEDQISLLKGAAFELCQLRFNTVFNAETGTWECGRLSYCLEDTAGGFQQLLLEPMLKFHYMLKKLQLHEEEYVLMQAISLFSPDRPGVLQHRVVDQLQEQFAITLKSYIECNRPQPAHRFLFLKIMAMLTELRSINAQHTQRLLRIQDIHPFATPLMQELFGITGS
Protocol: as §1

His-CRBN/DDB1 = molecular target: T3, His-CRBN/DDB1 (Homo sapiens, UniProt Q96SW2); assay: TR-FRET CRBN competitive binding assay (BODIPY FL thalidomide probe); settings: for CRBN binding (in words): FIG. 9D; for EC50: TR-FRET competitive binding, derived from FIG. 9D, read-out: CRBN Binding EC50 ± SD
T3 construct: made in house; host or cells: Sf9 insect cells (baculovirus)
Protocol: The pFastBacDual-6xHis-CRBN/DDB1 plasmid was cloned by GenScript and used for baculoviral expression of His-CRBN and untagged DDB1. Protein was expressed and purified essentially as described previously. The bacmid was produced in MAX Efficiency DH10Bac Competent Cells (Thermo Fisher Scientific) according to the manufacturer's instructions. To generate the P1 virus, 1×10^6 Sf9 cells were plated in each well of a six-well plate in 2 mL Sf-900 III SFM and transfected with 7 μg bacmid using Cellfectin II reagent (Thermo Fisher Scientific). After 6 h at 27° C., the media was replaced with 2 mL fresh Sf-900 III SFM. After three days, the supernatant was collected, centrifuged at 500×g for 5 min to remove cells and debris, transferred to new tubes, and stored at 4° C. To generate P2 virus, 2 mL P1 virus was added to 1×10^8 Sf9 cells in 50 mL Sf-900 III SFM and shaken at 27° C. for three days. The supernatant was collected and clarified as above. For protein expression, 5 mL P2 virus was added to each liter of Sf cells (2×10^6 cells/mL) and shaken at 27° C. for three days. Cells containing expressed protein were pelleted by centrifugation at 500×g for 5 min, the supernatant was removed, and pellets were stored at −80° C. until processing. […] The suspension was incubated on ice for 1 h, gently sonicated, and centrifuged for 1 h at 40,000×g at 4° C. The supernatant was applied to Ni-NTA Superflow resin (QIAGEN) equilibrated with lysis buffer. The resin was washed with 10 column volumes (CV) of lysis buffer, and proteins were eluted with 10 CV lysis buffer containing 500 mM imidazole. The solution was diluted to 200 mM NaCl using lysis buffer without NaCl and applied to a HiTrap ANX FF (High Sub) column (Cytiva) equilibrated with ANX binding buffer [50 mM Tris (pH 7.5), 200 mM NaCl, 3 mM TCEP]. The column was washed with 10 CV ANX binding buffer followed by 10 CV ANX wash buffer [50 mM Bis-Tris (pH 6.0), 200 mM NaCl, 3 mM TCEP]. A 20 CV linear gradient was then immediately applied from ANX binding buffer to ANX binding buffer containing 1 M NaCl using an AKTA avant chromatography system (Cytiva). The purest fractions were applied to a HiLoad 26/600 Superdex 200 pg size exclusion column equilibrated with 10 mM HEPES (pH 7.0), 240 mM NaCl, and 3 mM TCEP. Pure protein was concentrated to 20-30 mg/mL in Pierce PES Protein Concentrators (Thermo Fisher Scientific), flash frozen in liquid nitrogen, and stored at −80° C.
The assay buffer composition was 50 mM Tris (pH 7.5), 0.1% Triton X-100, 0.01% bovine serum albumin, and 1 mM DTT. […] Lastly, 5 μL/well of 8 nM Tb-anti-His and 8 nM His-CRBN/DDB1 in assay buffer was added. […] The plates were then protected from light exposure and incubated for 60 minutes at room temperature (RT). After incubation, the TR-FRET signal from each well was collected with a PHERAstar FS Microplate Reader (BMG Labtech). The percent inhibition for each well was calculated using equation 2: […]

PXR [2] = molecular target: T2, PXR; assay: cell-based hPXR antagonistic assay; settings: for inhibition at 10 µM: read-out: Antagonist (% inhibition at 10 μM); for IC50: read-out: Antagonist (IC50/μM)
PXR [3] = molecular target: T2, PXR; assay: cell-based hPXR inverse agonistic assay; settings: for inhibition at 10 µM: read-out: Inverse agonist (% inhibition at 10 μM); for IC50: read-out: Inverse agonist (IC50/μM)
PXR [4] = molecular target: T2, PXR; assay: cell-based hPXR agonistic assay; settings: for Agonist (% activation at 10 μM): rifampicin at 10 μM as 100% activation, DMSO (0.3%) as 0%
PXR [5] = molecular target: T2, PXR; assay: hPXR binding assay; settings: for inhibition at 10 µM: read-out: Binding (% inhibition at 10 μM)

| SMILES | GSPT1 Loss at 10 μM (% ± SD) (GSPT1) [%] | GSPT1 degradation (in words) (GSPT1) | inhibition at 10 µM (PXR [3]) [%] | IC50 (PXR [3]) [µM] | CRBN binding (in words) (His-CRBN/DDB1) | other results |
| --- | --- | --- | --- | --- | --- | --- |
| CC(=O)Nc1cc(Nc2cccc3c2C(=O)N(C2CCC(=O)NC2=O)C3=O)cc(C(C)(C)C)c1 (stereo not drawn) [Compound A3, N-(3-(tert-butyl)-5-((2-(2,6-dioxopiperidin-3-yl)-1,3-dioxoisoindolin-4-yl)amino)phenyl)acetamide] | 15 ± 21 | – | – | – | – | GSPT1 degradation (in words) (GSPT1; listed as SJPYT-231): did not affect either PXR or GSPT1 levels; also recorded: lost the degradation activity of GSPT1; PXR protein level (in words) (PXR [1]): did not affect either PXR or GSPT1 levels; CRBN binding (in words) (His-CRBN/DDB1; listed as SJPYT-231): strongest CRBN binding of all tested compounds; also recorded: maintained strong CRBN binding; also recorded: higher affinity CRBN binder than thalidomide or pomalidomide |
| COc1ccc(OC)c(-n2nnc(C(=O)Nc3cc(OC(=O)CNc4cccc5c4C(=O)N(C4CCC(=O)NC4=O)C5=O)cc(C(C)(C)C)c3)c2C)c1 (stereo not drawn) [Compound M7, 3-(tert-butyl)-5-(1-(2,5-dimethoxyphenyl)-5-methyl-1H-1,2,3-triazole-4-carboxamido)phenyl (2-(2,6-dioxopiperidin-3-yl)-1,3-dioxoisoindolin-4-yl)glycinate] | 46 ± 1.5 | only weakly degraded GSPT1 | 103 | 0.2 ± 0.038 | retained strong binding of CRBN | inhibition at 10 µM (PXR [2]): 71%; IC50 (PXR [2]): 1.38 ± 0.47 µM |
| CO[C@H]1/C=C/O[C@@]2(C)Oc3c(C)c(O)c4c(O)c(c(/C=N/N5CCN(C)CC5)c(O)c4c3C2=O)NC(=O)/C(C)=C\C=C\[C@H](C)[C@H](O)[C@@H](C)[C@@H](O)[C@@H](C)[C@H](OC(C)=O)[C@@H]1C [Rifampicin, reference compound] | – | – | – | – | – | Agonist (% activation at 10 μM) (PXR [4]): (100 ± 2)% |
| CC(C)(C)c1cc(N)cc(Oc2cccc3c2C(=O)N(C2CCC(=O)NC2=O)C3=O)c1 (stereo not drawn) [Compound A1, 4-(3-amino-5-(tert-butyl)phenoxy)-2-(2,6-dioxopiperidin-3-yl)isoindoline-1,3-dione] | 23 ± 2.8 | lost the degradation activity of GSPT1 | – | – | maintained strong CRBN binding | – |
| COc1ccc(OC)c(-n2nnc(C(=O)Nc3cc(NCCNc4cccc5c4C(=O)N(C4CCC(=O)NC4=O)C5=O)cc(C(C)(C)C)c3)c2C)c1 (stereo not drawn) [Compound M11, N-(3-(tert-butyl)-5-((2-((2-(2,6-dioxopiperidin-3-yl)-1,3-dioxoisoindolin-4-yl)amino)ethyl)amino)phenyl)-1-(2,5-dimethoxyphenyl)-5-methyl-1H-1,2,3-triazole-4-carboxamide] | 63 ± 13 | strong GSPT1 degradation | 135 | 0.0079 | retained strong binding of CRBN | IC50 (PXR [5]): 0.67 ± 0.014 µM; inhibition at 10 µM (PXR [5]): 61%; inhibition at 10 µM (PXR [2]): 109%; IC50 (PXR [2]): 0.026 ± 0.0008 µM |
| COc1ccc(OC)c(-n2nnc(C(=O)Nc3cc(NC(=O)CNc4cccc5c4C(=O)N(C4CCC(=O)NC4=O)C5=O)cc(C(C)(C)C)c3)c2C)c1 (stereo not drawn) [Compound M8, N-(3-(tert-butyl)-5-(2-((2-(2,6-dioxopiperidin-3-yl)-1,3-dioxoisoindolin-4-yl)amino)acetamido)phenyl)-1-(2,5-dimethoxyphenyl)-5-methyl-1H-1,2,3-triazole-4-carboxamide] | 89 ± 3.1 | strong GSPT1 degradation | 19 | 13.2 ± 1.28 | retained strong binding of CRBN | – |
| COc1ccc(OC)c(-n2nnc(S(=O)(=O)c3ccc(C(C)(C)C)cc3)c2C)c1 [SPA70, reference compound] | – | – | – | – | – | EC50 (His-CRBN/DDB1): > 3000 nM |
| COc1ccc(OC)c(-n2nnc(C(=O)Nc3cc(OCCCCCCCCN4C(=O)CCC(N5C(=O)c6cccc(N)c6C5=O)C4=O)cc(C(C)(C)C)c3)c2C)c1 (stereo not drawn) [Compound N5, N-(3-((8-(3-(4-amino-1,3-dioxoisoindolin-2-yl)-2,6-dioxopiperidin-1-yl)octyl)oxy)-5-(tert-butyl)phenyl)-1-(2,5-dimethoxyphenyl)-5-methyl-1H-1,2,3-triazole-4-carboxamide] | – | – | – | – | – | Agonist (% activation at 10 μM) (PXR [4]): (81 ± 5)% |
| COc1ccc(OC)c(-n2nnc(C(=O)Nc3cc(OCCNc4cccc5c4C(=O)N(C4CCC(=O)NC4=O)C5=O)cc(C(C)(C)C)c3)c2C)c1 (stereo not drawn) [Compound M10, N-(3-(tert-butyl)-5-(2-((2-(2,6-dioxopiperidin-3-yl)-1,3-dioxoisoindolin-4-yl)amino)ethoxy)phenyl)-1-(2,5-dimethoxyphenyl)-5-methyl-1H-1,2,3-triazole-4-carboxamide] | 72 ± 2.3 | strong GSPT1 degradation | 128 | 0.042 ± 0.0085 | retained strong binding of CRBN | inhibition at 10 µM (PXR [2]): 102%; IC50 (PXR [2]): 0.23 ± 0.023 µM |
| COc1ccc(OC)c(-n2nnc(C(=O)Nc3cc(C(C)(C)C)ccc3OCCCCN3C(=O)CCC(N4Cc5c(N)cccc5C4=O)C3=O)c2C)c1 (stereo not drawn) [Compound N1, N-(2-(4-(3-(4-amino-1-oxoisoindolin-2-yl)-2,6-dioxopiperidin-1-yl)butoxy)-5-(tert-butyl)phenyl)-1-(2,5-dimethoxyphenyl)-5-methyl-1H-1,2,3-triazole-4-carboxamide] | – | – | – | – | – | IC50 (PXR [5]): 1.27 ± 0.48 µM; inhibition at 10 µM (PXR [5]): 34%; Agonist (% activation at 10 μM) (PXR [4]): (55 ± 5)%; EC50 (PXR [4]; NA = no value within concentration range tested (highest 30 μM), read-out: Agonist (EC50/μM)): 0.75 ± 0.11 µM |
| COc1ccc(OC)c(-n2nnc(C(=O)Nc3cc(OCC(=O)Nc4cccc5c4C(=O)N(C4CCC(=O)NC4=O)C5=O)cc(C(C)(C)C)c3)c2C)c1 (stereo not drawn) [Compound M9, N-(3-(tert-butyl)-5-(2-((2-(2,6-dioxopiperidin-3-yl)-1,3-dioxoisoindolin-4-yl)amino)-2-oxoethoxy)phenyl)-1-(2,5-dimethoxyphenyl)-5-methyl-1H-1,2,3-triazole-4-carboxamide] | 20 ± 4.8 | – | – | – | greatly reduced CRBN binding | EC50 (His-CRBN/DDB1): > 333 nM |
